Measured values as given in ChEMBL document CHEMBL4334453, “Callistemonols A and B, Potent Antimicrobial Acylphloroglucinol Derivatives with Unusual Carbon Skeletons from Callistemon viminalis” (2019).
Converted amounts (≈) assume the structure as drawn. The source made the active and inactive calls. The calls are words filed in the database; no cut-off is given here.

How the values were obtained:
[1] = test system: Staphylococcus aureus; test: Induction of cell lysis in methicillin-resistant Staphylococcus aureus JCSC 4744 assessed as formation of membrane disruption at 8 fold MIC after 4 hrs by scanning electron microscopy; format: functional, organism-based
[2] = test system: Bacillus cereus; test: Antibacterial activity against Bacillus cereus CMCC 63302 incubated overnight by CLSI protocol based microdilution assay; format: functional
[3] = test system: Staphylococcus aureus; test: Antibacterial activity against methicillin-resistant Staphylococcus aureus JCSC 4744 incubated overnight by CLSI protocol based microdilution assay; format: functional
[4] = test system: Staphylococcus aureus; test: Bactericidal activity against methicillin-resistant Staphylococcus aureus JCSC 4744 assessed as reduction in cell survival at 8 fold MIC measured after 24 hrs by time-kill assay; format: functional, organism-based
[5] = test system: Staphylococcus aureus; test: Induction of cytoplasmic membrane depolarization in methicillin-resistant Staphylococcus aureus JCSC 4744 at 0.5 to 8 fold MIC by DiSC3-5 dye-based fluorescence assay; format: functional, organism-based
[6] = test system: Bacillus cereus; test: Bactericidal activity against Bacillus cereus CMCC 63302 measured after 24 hrs by sub-culturing; format: functional; settings: CMCC 63302, 24 h
[7] = test system: Staphylococcus aureus; test: Antibacterial activity against Staphylococcus aureus CMCC 26003 incubated overnight by CLSI protocol based microdilution assay
[8] = test system: Staphylococcus aureus; test: Bactericidal activity against methicillin-resistant Staphylococcus aureus JCSC 4744 measured after 24 hrs by sub-culturing; format: functional; settings: JCSC 4744, 24 h
[9] = test system: Staphylococcus aureus; test: Bactericidal activity against Staphylococcus aureus CMCC 26003 measured after 24 hrs by sub-culturing; settings: CMCC 26003, 24 h
[10] = test system: Staphylococcus aureus; test: Bactericidal activity against methicillin-resistant Staphylococcus aureus JCSC 4744 assessed as reduction in cell survival by measuring colony forming units at MIC measured within 4 hrs by time-kill assay; format: functional
[11] = test system: Escherichia coli; test: Antibacterial activity against Escherichia coli ATCC 8739 incubated overnight by CLSI protocol based microdilution assay; format: functional
[12] = test system: Staphylococcus aureus; test: Antibacterial activity against methicillin-resistant Staphylococcus aureus JCSC 4469 incubated overnight by CLSI protocol based microdilution assay; format: functional
[13] = test system: Staphylococcus aureus; test: Bactericidal activity against methicillin-resistant Staphylococcus aureus JCSC 4469 measured after 24 hrs by sub-culturing; format: functional; settings: JCSC 4469, 24 h
[14] = test system: Staphylococcus aureus; test: Disruption of membrane integrity in methicillin-reisitant Staphylococcus aureus JCSC 4744 measured after 4 hrs by SYTOX-greeen-based fluorescence assay; format: functional, organism-based
[15] = test system: Staphylococcus aureus; test: Induction of cell lysis in methicillin-resistant Staphylococcus aureus JCSC 4744 assessed as formation of membrane fissures at 8 fold MIC after 4 hrs by scanning electron microscopy; format: functional, organism-based
[16] = test system: Staphylococcus aureus; test: Bactericidal activity against methicillin-resistant Staphylococcus aureus JCSC 4744 assessed as reduction in cell survival by measuring colony forming units at MIC measured within 4 hrs by time-kill assay relative to control; format: functional
[17] = test system: Staphylococcus aureus; test: Bactericidal activity against methicillin-resistant Staphylococcus aureus JCSC 4744 assessed as reduction in cell survival by measuring colony forming units at MIC after 24 hrs by time-kill assay relative to control; format: functional
[18] = test system: Staphylococcus aureus; test: Disruption of membrane integrity in methicillin-reisitant Staphylococcus aureus JCSC 4744 at 10 ug/ml measured within 2 mins by SYTOX-greeen-based fluorescence assay; format: functional, organism-based

Compound	Activity [1]	MIC [2] [µg/mL]	MIC [3] [µg/mL]	Activity [4]	Activity [5]	MBC [6] [µg/mL]	MIC [7] [µg/mL]	MBC [8] [µg/mL]	MBC [9] [µg/mL]	Activity [10] [log10CFU/ml]	MIC [11] [µg/mL]	MIC [12] [µg/mL]	MBC [13] [µg/mL]	Activity [14]	Activity [15]	inhibition (INH) [16] [%]	inhibition (INH) [17] [%]	Activity [18]
COc1cc(O)c(C(=O)CC(C)C)c2c1[C@]1(O)C(O)=C(C(=O)C(C)C)C(=O)C[C@]1(OC)O2	Active	25 (≈ 55.7 µM)	3.12 (≈ 6.96 µM)	Active	Active	50 (≈ 111 µM)	25 (≈ 55.7 µM)	6.25 (≈ 13.9 µM)	50 (≈ 111 µM)	2	> 100	3.12 (≈ 6.96 µM)	6.25 (≈ 13.9 µM)	Active	Active	99	100	
CN[C@H](CC(C)C)C(=O)N[C@H]1C(=O)N[C@@H](CC(N)=O)C(=O)N[C@H]2C(=O)N[C@H]3C(=O)N[C@H](C(=O)N[C@H](C(=O)O)c4cc(O)cc(O)c4-c4cc3ccc4O)[C@H](O)c3ccc(c(Cl)c3)Oc3cc2cc(c3O[C@@H]2O[C@H](CO)[C@@H](O)[C@H](O)[C@H]2O[C@H]2C[C@](C)(N)[C@H](O)[C@H](C)O2)Oc2ccc(cc2Cl)[C@H]1O [VANCOMYCIN]		50 (≈ 34.5 µM)	0.78 (≈ 0.538 µM)				1.56 (≈ 1.08 µM)	2.5 (≈ 1.73 µM)	2.5 (≈ 1.73 µM)	2	50 (≈ 34.5 µM)	0.78 (≈ 0.538 µM)	2.5 (≈ 1.73 µM)			99		
COC1=C(C(=O)CC(C)C)C(=O)C(O)C1(C)C (centres undefined)	Active	12.5 (≈ 52 µM)	1.56 (≈ 6.49 µM)		Active	25 (≈ 104 µM)	3.12 (≈ 13 µM)	3.12 (≈ 13 µM)	6.25 (≈ 26 µM)	2	> 100	3.12 (≈ 13 µM)	6.25 (≈ 26 µM)	Active	Active	99	100	
CC[C@H](C)[C@H](NC(=O)CN)C(=O)NCC(=O)N[C@@H](C)C(=O)N[C@H](C(=O)N[C@@H](CC(C)C)C(=O)N[C@@H](CCCCN)C(=O)N[C@H](C(=O)N[C@@H](CC(C)C)C(=O)N[C@H](C(=O)N[C@H](C(=O)NCC(=O)N[C@@H](CC(C)C)C(=O)N1CCC[C@H]1C(=O)N[C@@H](C)C(=O)N[C@@H](CC(C)C)C(=O)N[C@H](C(=O)N[C@@H](CO)C(=O)N[C@@H](Cc1c[nH]c2ccccc12)C(=O)N[C@H](C(=O)N[C@@H](CCCCN)C(=O)N[C@@H](CCCNC(=N)N)C(=O)N[C@@H](CCCCN)C(=O)N[C@@H](CCCNC(=N)N)C(=O)N[C@@H](CCC(N)=O)C(=O)N[C@@H](CCC(N)=O)C(N)=O)[C@@H](C)CC)[C@@H](C)CC)[C@@H](C)O)[C@@H](C)O)C(C)C)C(C)C																		Active
